The values that follow come from PMC4766415 (Nature Communications, 2016).

Details of data set [1]: method as in PMID 17107884. To be noted: cited from earlier work.
Data set [2] concerns the target TTR. On the set-up: method as in PMID 14968122. Conditions: cited from earlier work.
A further data set deals with FAP. On the set-up: method as in PMID 24368466. To be noted: patients with FAP, 2 years treatment; cited from earlier work.
The subject of data set [3] is T1, TTR in human plasma (WT-TTR and V30M-TTR).
T1 construct: human plasma from a normal (WT-TTR) and from an FAP patient carrying the V30M-TTR mutation; from tissue; host or cells: human plasma of normal donors and of V30M-TTR carriers
The experiment in a line: [125I]T4 competition in human plasma, native gel electrophoresis. The format is binding. Conditions: 1 mM; plasma from normal (WT-TTR) and V30M-TTR FAP patient; 1 h RT. An excerpt: Error bars indicate s.e.m. (n=3). […] Error bars indicate s.e.m. (n=3).

Details of data set [4]: method as in Vyndaqel European Public Assessment Report (EMA/815723/2011). To be noted: single dose of 120 mg; ref Vyndaqel European Public Assessment Report (EMA/815723/2011); cited from earlier work.
Another data set concerns the target Y78F-TTR (Homo sapiens, UniProt P02766, Y98F). Briefly: Y78F-TTR aggregation inhibition, turbidity at 340 nm, pH 4.2.
For data set [5], the system named is WT and V30M-TTR tetramers in plasma. The experiment in a line: TTR tetramer stability in human plasma by IEF under semi-denaturing conditions. The class given is biochemical. Conditions: 1.4 mM, overnight 4 °C, 4 M urea.
In the next data set the test system is AC16 cells. The experiment in a line: TTR-induced cytotoxicity in AC16 cells, resazurin reduction assay. Conditions: 16 μM compound, 8 μM TTR; 24 h. The format is cell-based, human. The text has this: Error bars indicate s.e.m. […] Error bars indicate s.e.m. (n=4). […] Error bars indicate s.e.m. (n=3).
Data set [6] relates to Rat Schwannoma cells (RN22). The experiment in a line: Caspase-3 activation by Y78F-TTR oligomers in RN22 cells. To be noted: Y78F-TTR aggregates 2 μM formed with 20 μM compound; 24 h exposure.
Data set [7] deals with TTR. Set-up: method as in Vyndaqel European Public Assessment Report (EMA/815723/2011). To be noted: single dose of 120 mg; ref Vyndaqel European Public Assessment Report (EMA/815723/2011); cited from earlier work.
A further data set deals with T2, L55P-TTR.
T2 construct: TTR is composed of four identical 127 amino-acid residue β-sheet-rich subunits; expressed in transfected cells; host or cells: rat Schwannoma RN22 cells, metallothionein promoter, ZnSO4 induction
Briefly: Dot-blot filter assay of L55P-TTR aggregation secreted by RN22 cells. The format is cell-based, human. To be noted: 1 μM in the medium. As for the experimental part: The extent of extracellular L55P-TTR aggregation was monitored by a filter trap assay followed by TTR immunodetection.
The rat Schwannoma cell line RN22 stably co-transfected with TTR L55P cDNA under the control of the metallothionein promoter was used to test the inhibitors of TTR aggregation as in ref. [51]. […] TTR in the medium was quantified by ELISA, and the volume of medium corresponding to 500 ng of TTR was applied on to a 0.2-μm pore cellulose acetate membrane filter (Schleicher and Schuell) using a manifold system (Gibco BRL) to separate soluble proteins from aggregates. […] Detection was performed with ECL (GE Healthcare). Dot blot quantification was performed using the ImageQuant program. The percentage of aggregation inhibition was calculated as 100 × ((Control—Treated)/Control). Experiments were repeated three times in triplicate.

Another data set concerns the target V122I-TTR. On the set-up: method as in PMID 23716704. Conditions: subunit exchange assays; cited from earlier work.

pKd: −log10 of the molar value. Read-outs that look alike come from different tables or passages of the source. Bounds are passed on as bounds.

As for `O=C(O)c1cc(-c2ccc(F)cc2F)ccc1O` [diflunisal], the “concentration in serum after oral administration” value in data set [1] was over 140 µM. For the same compound, the pKd at TTR [2] (read-out: Kd1) was 7.12; at TTR [2] (read-out: Kd2) it was 5.96. Besides, the “effect on progression of neurological impairment” value in the data set with FAP is given as “reduced the rate of progression of neurological impairment”.
In the case of `O=C(O)c1ccc2nc(-c3cc(Cl)cc(Cl)c3)oc2c1` [tafamidis], in data set [3], the “radioactive T4-TTR band in the presence of compound” value is on record as “no longer visible”. Moreover, the “average concentration in plasma at Tmax” value in [4] is 14.4 µM. Further, at Y78F-TTR, the “RA (%): percent reduction of TTR aggregation rate at high inhibitor concentration” value is 59.57%. The “TTR tetramer stabilization in plasma” value in data set [5] is “stabilized WT and V30M-TTR tetramers in plasma”. Moreover, the “effect on WT-TTR and V122I-TTR induced reduction in cell viability” value in the data set on AC16 cells is recorded as “rescued this toxic effect”. For the same compound, in data set [6], the “reduction in Caspase-3 activation” value is 11.6%±4.0. Besides, in the data set on TTR [7], the “average percent stabilization of TTR” value is recorded as 189%. For the same compound, in the data set with L55P-TTR, the “reduction of L55P-TTR aggregation compared with untreated cells” value is about 90%. In addition, the Kd2 estimate entry on V122I-TTR was “in the μM range”.
